# Key:
# [1] = tested on: ERK and AKT signal pathways in TM3 cells; assay: Western blot of p-ERK/ERK and p-AKT/AKT in TM3 cells; type: cell-based, mouse; settings: H2O2 damaged TM3 cells
# Description: TM3 cells: purchased from Shanghai Cell Bank of the Chinese Academy of Sciences. The culture conditions are DMEM/F12+5% horse serum+2.5% fetal bovine serum+1% penicillin-streptomycin, 37° C., 5% CO2 incubator. TM3 cells were placed in a 96-well plate at a density of 3×10^4 cells/mL and divided into 6 groups: control group, H2O2 group, CYCSE group, ERK inhibitor ([…] group, AKT inhibitor ([…] group, and sildenafil group. After the two inhibitors were pretreated for 1 […] was added and processed for 24 h, and 0.4 mM H2O2 was added and processed for 2 h. The TM3 cells or the MCECs were placed in 6-well plates, and the CYCSE was added to process for 24 h and 0.4 mM H2O2 to process for 2 h. The cells were collected and washed twice with PBS, wherein supernatant was discarded. The testicular tissue in liquid nitrogen was ground into powder. 200 μL of RIPM lysis solution (containing 1% PMSF) was added to each of the above samples to lyse on ice for 30 min and centrifuge at 12000 r for 10 min at 4° C., wherein supernatant was stored at -20° C. for later use. A BCA protein content detection kit was used to determine protein content in the samples and to adjust protein concentration to the same level. An equal volume of 2× loading buffer was added to an appropriate amount of the extracted protein sample, which was mixed well, boiled for 10 min, and stored at -20° C. […]
# TM3 cells = assay: CCK8 cell viability of H2O2 damaged TM3 cells; type: cell-based, mouse; settings: inhibitor pretreated 1 h, then 62.5 μg/mL CYCSE 24 h, 0.4 mM H2O2 2 h
# Description: TM3 cells: purchased from Shanghai Cell Bank of the Chinese Academy of Sciences. The culture conditions are DMEM/F12+5% horse serum+2.5% fetal bovine serum+1% penicillin-streptomycin, 37° C., 5% CO2 incubator. TM3 cells were placed in a 96-well plate at a density of 3×10^4 cells/mL and divided into 6 groups: control group, H2O2 group, CYCSE group, ERK inhibitor ([…] group, AKT inhibitor ([…] group, and sildenafil group. After the two inhibitors were pretreated for 1 […] was added and processed for 24 h, and 0.4 mM H2O2 was added and processed for 2 h. After the two kinds of cells were treated separately, CCK8 was added and incubated at 37° C. for 1 h. A microplate reader was used to measure absorbance at 450 nm and calculate the cell viability.
# NO/cGMP signal pathway = assay: ELISA of iNOS and cGMP in kidney-yang deficiency rats; type: in vivo, SD rats; settings: CYCSE 60, 80 mg/kg; sildenafil 4.4 mg/kg; vs model group
# Description: SD rats were randomly divided into 5 groups with 10 rats in each group. The SD rats were fed with 25 mg/kg hydrocortisone (HCT) for 10 days to construct a kidney-yang deficiency model, and then gave different concentrations of the CYCSE for 10 days. Specific groups were as follows: control group (distilled water 20 d); kidney-yang deficiency group (HCT 10 d+distilled water 10 […] low-concentration group (HCT 10 d+60 mg/kg […] high-concentration group (HCT 10 d+80 mg/kg […]); sildenafil group (HCT 10 d+4.4 mg/kg sildenafil 10 d). After treatment, the rats were anesthetized by intraperitoneal injection of 3% sodium pentobarbital. After the animal was anesthetized, blood was taken from the celiac artery and spontaneously coagulated for 25 min, and centrifuged at 2500 rpm/min for 10 min at 4° C. Supernatant was collected, namely serum samples. Contents of inducible nitric oxide synthase (iNOS), cyclic guanosine phosphate (cGMP) and testosterone in serum were detected according to instructions of rat ELISA test kit (BPRO, Shanghai, China).
# [2] = tested on: testis tissue of kidney-yang deficiency rats; assay: Testicular tissue morphology (HE staining) in kidney-yang deficiency rats; type: in vivo, SD rats; settings: HCT 10 d + 4.4 mg/kg sildenafil 10 d
# Description: (§1) SD rats were randomly divided into 5 groups with 10 rats in each group. The SD rats were fed with 25 mg/kg hydrocortisone (HCT) for 10 days to construct a kidney-yang deficiency model, and then gave different concentrations of the CYCSE for 10 days. Specific groups were as follows: control group (distilled water 20 d); kidney-yang deficiency group (HCT 10 d+distilled water 10 d); CYCSE low-concentration group (HCT 10 d+60 mg/kg CYCSE 10 d); CYCSE high-concentration group (HCT 10 d+80 mg/kg CYCSE 10 d); sildenafil group (HCT 10 d+4.4 mg/kg sildenafil 10 d). After treatment, the rats were anesthetized by intraperitoneal injection of 3% sodium pentobarbital.
# (§2) Cavernosum tissue and testicular tissue were fixed in 4% paraformaldehyde, and then embedded in paraffin and sectioned. Testicular tissue sections were stained with hematoxylin-eosin method and Masson method respectively. Cavernosum tissue sections were stained with hematoxylin-eosin method. The testicular tissue sections were processed by immunohistochemistry, and testicular leydig cells were labeled with 3β-HSD antibody. A Nikon posture microscope was used to take photos.
# [3] = tested on: sperm of kidney-yang deficiency rats; assay: Sperm count and vitality check; type: in vivo, SD rats; settings: HCT 10 d + 4.4 mg/kg sildenafil 10 d
# Description: SD rats were randomly divided into 5 groups with 10 rats in each group. The SD rats were fed with 25 mg/kg hydrocortisone (HCT) for 10 days to construct a kidney-yang deficiency model, and then gave different concentrations of the CYCSE for 10 days. Specific groups were as follows: control group (distilled water 20 d); kidney-yang deficiency group (HCT 10 d+distilled water 10 […] low-concentration group (HCT 10 d+60 mg/kg […] high-concentration group (HCT 10 d+80 mg/kg […]); sildenafil group (HCT 10 d+4.4 mg/kg sildenafil 10 d). After treatment, the rats were anesthetized by intraperitoneal injection of 3% sodium pentobarbital. At the end of administration, epididymis samples were collected, excess tissue was removed, and blood was washed away with saline. The samples were fixed with tweezers, so as to cut a tail side of the epididymis longitudinally. The sperm was released in a petri dish containing PBS, and a hemocytometer was used to detect number and viability of the sperm under a microscope after waiting at room temperature for 10 minutes (sperm viability is divided into 4 levels: a) move forward rapidly in a straight line, b) move forward slowly in a straight line, c) move locally, d) no move).
# [4] = tested on: primary cavernous endothelial cells (MCECs); assay: CCK8 cell viability of H2O2 damaged MCECs; type: cell-based, C57BL/6 mice; settings: CYCSE 31.3 and 62.5 μg/mL or sildenafil 24 h, then 0.4 mM H2O2 2 h; dose-dependent
# Excerpt: Eight-week-old C57BL/6J mice were sacrificed by cutting necks. Lower abdomen was sterilized with alcohol cotton balls, a lower abdomen incision was made with tweezers and surgical scissors, and the abdominal fascia and foreskin glands were peeled off to expose cavernosum tissue. The cavernosum tissue was separated with surgical scissors and placed in Hank's balanced salt solution containing 10% penicillin-streptomycin, and urethra and neurovascular bundles were removed under microscope to obtain clean cavernosum tissue. The obtain tissue was washed 3 times in PSB containing 10% penicillin-streptomycin, cut into small pieces of 1-2 mm^3 with surgical scissors, and placed at bottoms of a pre-cooled 24-well plate with 2 pieces in each well. Each well was supplemented with 200 μL Matrigel containing 50 ng/mL VEGF-A. The MCECs were cultured in a simulated 3D environment to induce proliferation. Then the MCECs were incubate in a 37° C., 5% CO2 incubator for 14 days until the bottoms of the wells were full. After aspirating the medium, 200 μL Dispase was added to each well for digestion in the incubator for 1 h, and an equal volume of 10 mM EDTA was added to stop the digestion. […] A microplate reader was used to measure absorbance at 450 nm and calculate the cell viability.
# testicular leydig cells = assay: Immunohistochemistry of testicular leydig cells (3β-HSD); type: in vivo, SD rats; design: key: negative (−); weakly positive (+); ranging from negative (−) to weakly positive (+) to strong positive (+++); strong positive (+++); settings: HCT 10 d + 4.4 mg/kg sildenafil 10 d
# Description: as §1, §2
# [5] = tested on: kidney-yang deficiency rats; assay: Body weight, organ weight and routine indicators in hydrocortisone-induced kidney-yang deficiency rat model; type: in vivo, SD rats; settings: HCT 10 d + 4.4 mg/kg sildenafil 10 d
# Description: as §1, with “d); CYCSE” left out, “CYCSE 10 d); CYCSE” left out, “[…]);” for “CYCSE 10 d);”
# [6] = tested on: mice with oligoasthenospermia induced by tripterygium glycosides; settings: cited from earlier work
structure (smiles),measurement,setting,value
COc1cccc(-c2cc(=O)c3ccccc3o2)c1N [PD98059],CYCSE-induced increase of p-ERK/ERK and p-AKT/AKT in TM3 cells with inhibitor,[1],significantly down-regulated
same,Effect of inhibitor on the protective effect of CYCSE on TM3 cell viability,TM3 cells,significantly block the protective effect
CCCc1nn(C)c2c(=O)[nH]c(-c3cc(S(=O)(=O)N4CCN(C)CC4)ccc3OCC)nc12 [Sildenafil],cGMP content,NO/cGMP signal pathway,no significant difference between the sildenafil group and the high concentration group
same,iNOS content,NO/cGMP signal pathway,no significant difference between the sildenafil group and the high concentration group
same,Diameter of seminiferous tubules,[2],357.61 ± 8.03 μm
same,Germinal cell layer thickness,[2],72.50 ± 5.47 μm
same,Sperm number,[3],4.63 ± 0.56^Δ *10^6/mL
same,Sperm motility a,[3]; grade a,17.67 ± 2.05^Δ %
same,Sperm motility a + b,[3]; grades a + b,37.67 ± 2.05^ΔΔ %
same,Cell viability of oxidation-damaged MCECs,[4],no salvage effect
same,Immunoexpression of 3β-HSD (testicular leydig cells),testicular leydig cells,+
same,Body weight,[5],329.37 ± 10.82 g
same,Epididymal weight,[5],0.85 ± 0.01 g
same,Testicular weight,[5],3.03 ± 0.06 g
C[C@@H]1CC[C@@]2(OC1)O[C@H]1C[C@H]3[C@@H]4CC=C5C[C@@H](O)CC[C@]5(C)[C@H]4CC[C@]3(C)[C@H]1[C@@H]2C [diosgenin],Erectile latency,[6],shorten
same,MDA content in testicular tissues,[6],reduce
same,Organ coefficient of reproductive organs and immune organs,[6],improve
same,SOD activity in testicular tissues,[6],increase
same,Sperm quality,[6],improve
